ChEMBL document CHEMBL1127822, “6-Alkyl- and 6-arylandrost-4-ene-3,17-diones as aromatase inhibitors. Synthesis and structure-activity relationships” (J Med Chem, 1994)

How the values were obtained:
Aromatase [1] = molecular target: T1, Aromatase (Homo sapiens, UniProt P11511); assay: Inhibitory concentration was tested on Cytochrome P450 19A1 in human placental microsomes 20 (microg) of protein incubated for 20 min; set-up: species or system Placenta
T1 sequence (P11511 whole entry): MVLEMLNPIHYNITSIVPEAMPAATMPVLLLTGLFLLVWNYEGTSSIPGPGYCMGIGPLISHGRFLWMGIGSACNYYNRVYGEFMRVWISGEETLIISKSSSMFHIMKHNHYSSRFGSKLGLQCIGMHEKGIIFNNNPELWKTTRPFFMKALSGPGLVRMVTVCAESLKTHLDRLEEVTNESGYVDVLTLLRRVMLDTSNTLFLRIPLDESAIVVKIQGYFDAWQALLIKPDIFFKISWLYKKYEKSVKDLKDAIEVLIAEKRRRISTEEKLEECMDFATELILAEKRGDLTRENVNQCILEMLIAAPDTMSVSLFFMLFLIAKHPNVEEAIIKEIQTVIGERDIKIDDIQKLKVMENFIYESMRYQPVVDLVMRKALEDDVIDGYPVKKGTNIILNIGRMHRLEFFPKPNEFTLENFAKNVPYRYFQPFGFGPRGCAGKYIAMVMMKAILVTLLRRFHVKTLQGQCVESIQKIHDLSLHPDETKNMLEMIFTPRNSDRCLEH

Aromatase [2] = molecular target: T1, Aromatase; assay: Binding affinity for human placental microsome Cytochrome P450 19A1
Aromatase [3] = molecular target: T1, Aromatase; assay: Binding affinity for human placental microsome aromatase Cytochrome P450 19A1

| Structure (SMILES) | IC50 (Aromatase [1]) | Ki (Aromatase [2]) | Ki (Aromatase [3]) |
| --- | --- | --- | --- |
| CC[C@H]1CC2C3CCC(=O)C3(C)CCC2C2(C)CCC(=O)C=C12 (some centres not stated) | 260 nM | 4.7 nM |  |
| CCCC[C@@H]1CC2C3CCC(=O)C3(C)CCC2C2(C)CCC(=O)C=C12 (some centres not stated) | 510 nM | 8.8 nM |  |
| CC(C)[C@@H]1CC2C3CCC(=O)C3(C)CCC2C2(C)CCC(=O)C=C12 (some centres not stated) | 1100 nM |  | 22 nM |
| C=C[C@@H]1CC2C3CCC(=O)C3(C)CCC2C2(C)CCC(=O)C=C12 (some centres not stated) | 320 nM |  | 5.1 nM |
| CC12CCC3C(C[C@H](c4ccccc4)C4=CC(=O)CCC43C)C1CCC2=O (some centres not stated) | 1100 nM |  | 21 nM |
| CC12CCC3C(C[C@@H](Cc4ccccc4)C4=CC(=O)CCC43C)C1CCC2=O (some centres not stated) | 4000 nM |  | 63 nM |
| CCCC[C@H]1CC2C3CCC(=O)C3(C)CCC2C2(C)CCC(=O)C=C12 (some centres not stated) | 790 nM |  | 12 nM |
| CC[C@@H]1CC2C3CCC(=O)C3(C)CCC2C2(C)CCC(=O)C=C12 (some centres not stated) | 140 nM | 1.4 nM |  |
| CC(C)[C@H]1CC2C3CCC(=O)C3(C)CCC2C2(C)CCC(=O)C=C12 (some centres not stated) | 1400 nM |  | 31 nM |
| CC12CCC3C(C[C@H](Cc4ccccc4)C4=CC(=O)CCC43C)C1CCC2=O (some centres not stated) | 660 nM |  | 10 nM |
| C[C@H]1CC2C3CCC(=O)C3(C)CCC2C2(C)CCC(=O)C=C12 (some centres not stated) | 350 nM | 5.6 nM |  |
| CCC[C@H]1CC2C3CCC(=O)C3(C)CCC2C2(C)CCC(=O)C=C12 (some centres not stated) | 390 nM |  | 6.7 nM |
| C#C[C@@H]1CC2C3CCC(=O)C3(C)CCC2C2(C)CCC(=O)C=C12 (some centres not stated) | 1900 nM | 62 nM |  |
| CC12CCC3C(C[C@@H](c4ccccc4)C4=CC(=O)CCC43C)C1CCC2=O (some centres not stated) | 1700 nM | 37 nM |  |
| CCC[C@@H]1CC2C3CCC(=O)C3(C)CCC2C2(C)CCC(=O)C=C12 (some centres not stated) | 240 nM | 4.6 nM |  |
| C[C@@H]1CC2C3CCC(=O)C3(C)CCC2C2(C)CCC(=O)C=C12 (some centres not stated) | 720 nM | 11 nM |  |
